pIC50: −log10 of the molar value. Like-named read-outs stand apart in the source and are kept apart here.
System: Huntingtin protein (HTT)
Assay: Endogenous Huntingtin Protein Assay (MSD electrochemiluminescence)
Type: cell-based
Procedure: Compounds of Formula (I) were tested using the Meso Scale Discovery (MSD) Assay provided in International Application No. PCT/US2016/066042, filed on Dec. 11, 2016 and claiming priority to United States Provisional Application U.S. 62/265,652 filed on Dec. 10, 2015, the entire contents of which are incorporated herein by reference.
The Endogenous Huntingtin Protein assay used in Example 1 was developed using the ELISA-based MSD electrochemiluminescence assay platform.
Meso Scale Discovery (MSD) 96-well or 384-well plates were coated overnight at 4° C. with MW1 (expanded polyglutamine) or MAB2166 monoclonal antibody (for capture) at a concentration of 1 μg/mL in PBS (30 μL per well). Plates were then washed three times with 300 μL wash buffer (0.05% Tween-20 in PBS) and blocked (100 μL blocking buffer; 5% BSA in PBS) for 4-5 hours at room temperature with rotational shaking and then washed three times with wash buffer.
Samples (25 μL) were transferred to the antibody-coated MSD plate and incubated overnight at 4° C. After removal of the lysates, the plate was washed three times with wash buffer, and 25 μL of #5656S (Cell signaling; rabbit monoclonal) secondary antibody (diluted to 0.25 μg/mL in 0.05% Tween-20 in blocking buffer) was added to each well and incubated with shaking for 1 Hour at room temperature. Following incubation with the secondary antibody, the wells were rinsed with wash buffer after which 25 μL of goat anti-rabbit SULFO TAG secondary detection antibody (required aspect of the MSD system) (diluted to 0.25 μg/mL in 0.05% Tween-20 in blocking buffer) was added to each well and incubated with shaking for 1 hour at room temperature. After rinsing three times with wash buffer, 150 μL of read buffer T with surfactant (MSD) were added to each empty well, and the plate was imaged on a SI 6000 imager (MSD) according to manufacturers' instructions provided for 96- or 384-well plates.

[1] = Table 1, Endogenous Huntingtin Protein Assay, read-out: IC50
[2] = Table 2, comparison compounds tested according to the assay of Example 1, read-out: IC50
[3] = Table 1, Endogenous Huntingtin Protein Assay

Compound | pIC50 [1] | other results
2-{7-[(1S,2R,3R,5R)-2-fluoro-1,5-dimethyl-8-azabicyclo[3.2.1]octan-3-yl]-7H-pyrrolo[2,3-c]pyridazin-3-yl}-5-(1H-1,2,3-triazol-1-yl)phenol and 2-{7-[(1R,2S,3S,5S)-2-fluoro-1,5-dimethyl-8-azabicyclo[3.2.1]octan-3-yl]-7H-pyrrolo[2,3-c]pyridazin-3-yl}-5-(1H-1,2,3-triazol-1-yl)phenol [Cpd 21] | > 7.00 | –
2-{7-[(1S,2S,3R,5R)-2-fluoro-8-azabicyclo[3.2.1]octan-3-yl]-7H-pyrrolo[2,3-c]pyridazin-3-yl}-5-(1H-1,2,3-triazol-1-yl)phenol and 2-{7-[(1R,2R,3S,5S)-2-fluoro-8-azabicyclo[3.2.1]octan-3-yl]-7H-pyrrolo[2,3-c]pyridazin-3-yl}-5-(1H-1,2,3-triazol-1-yl)phenol [Cpd 20] | > 7.00 | –
2-{7-[(3R,4S)-3-fluoro-2,2,6,6-tetramethylpiperidin-4-yl]-7H-pyrrolo[2,3-c]pyridazin-3-yl}-5-(1H-1,2,3-triazol-1-yl)phenol and 2-{7-[(3S,4R)-3-fluoro-2,2,6,6-tetramethylpiperidin-4-yl]-7H-pyrrolo[2,3-c]pyridazin-3-yl}-5-(1H-1,2,3-triazol-1-yl)phenol [Cpd 3] | > 7.00 | –
2-{7-[(3S,4S)-3-fluoro-2,2,6,6-tetramethylpiperidin-4-yl]-7H-pyrrolo[2,3-c]pyridazin-3-yl}-5-(1H-1,2,3-triazol-1-yl)phenol and 2-{7-[(3R,4R)-3-fluoro-2,2,6,6-tetramethylpiperidin-4-yl]-7H-pyrrolo[2,3-c]pyridazin-3-yl}-5-(1H-1,2,3-triazol-1-yl)phenol [Cpd 2] | > 7.00 | –
2-{7-[(4S,5R)-5-fluoro-2,2-dimethylpiperidin-4-yl]-7H-pyrrolo[2,3-c]pyridazin-3-yl}-5-(1H-1,2,3-triazol-1-yl)phenol and 2-{7-[(4R,5S)-5-fluoro-2,2-dimethylpiperidin-4-yl]-7H-pyrrolo[2,3-c]pyridazin-3-yl}-5-(1H-1,2,3-triazol-1-yl)phenol [Cpd 12] | > 7.00 | –
2-{7-[(8R,9R)-9-fluoro-5-azaspiro[3.5]nonan-8-yl]-7H-pyrrolo[2,3-c]pyridazin-3-yl}-5-(1H-1,2,3-triazol-1-yl)phenol and 2-{7-[(8S,9S)-9-fluoro-5-azaspiro[3.5]nonan-8-yl]-7H-pyrrolo[2,3-c]pyridazin-3-yl}-5-(1H-1,2,3-triazol-1-yl)phenol [Cpd 23] | > 7.00 | –
2-{7-[(8S,9R)-8-fluoro-6-azaspiro[4.5]decan-9-yl]-7H-pyrrolo[2,3-c]pyridazin-3-yl}-5-(1H-1,2,3-triazol-1-yl)phenol and 2-{7-[(8R,9S)-8-fluoro-6-azaspiro[4.5]decan-9-yl]-7H-pyrrolo[2,3-c]pyridazin-3-yl}-5-(1H-1,2,3-triazol-1-yl)phenol [Cpd 25] | 6.30 to 7.00 | –
5-(1H-1,2,3-triazol-1-yl)-2-{7-[(4RS)-1,2,2-trimethylpiperidin-4-yl]-7H-pyrrolo[2,3-c]pyridazin-3-yl}phenol [Cpd 6] | 6.00 to 6.30 | –
CC1(C)CC(n2ccc3cc(-c4ccc(-n5ccnn5)cc4O)nnc32)CCN1 (racemic) [Cpd 5, 2-{7-[(4RS)-2,2-dimethylpiperidin-4-yl]-7H-pyrrolo[2,3-c]pyridazin-3-yl}-5-(1H-1,2,3-triazol-1-yl)phenol] | > 7.00 | –
CC1(C)CC(n2ccc3cc(-c4ccc(-n5ccnn5)cc4O)nnc32)CC(C)(C)N1 [Cpd 1, 2-[7-(2,2,6,6-tetramethylpiperidin-4-yl)-7H-pyrrolo[2,3-c]pyridazin-3-yl]-5-(1H-1,2,3-triazol-1-yl)phenol] | > 7.00 | pIC50 [2]: 9.10; improvement in potency (compared with Cpd 26 in WO2020/005873 (1H-pyrazole replaced with 1H-1,2,3-triazole)): over 8 fold; improvement in potency (compared with Cpd 72 in WO2020/005873 (3H-[1,2,3]-triazolo[4,5-c]pyridazine core)): 223 fold
Oc1cc(-n2ccnn2)ccc1-c1cc2ccn(C3CCNC4(CC4)C3)c2nn1 (stereo not shown) [Cpd 4, 2-[7-(4-azaspiro[2.5]octan-7-yl)-7H-pyrrolo[2,3-c]pyridazin-3-yl]-5-(1H-1,2,3-triazol-1-yl)phenol] | > 7.00 | –
CC1(C)CC(n2nnc3cc(-c4ccc(-c5cn[nH]c5)cc4O)nnc32)CC(C)(C)N1 [Cpd 7 in WO2020/005873, reference compound] | – | pIC50 [2]: 8.19
CN1CCC(n2ccc3cc(-c4ccc(-n5ccnn5)cc4O)nnc32)CC12CC2 (stereo not shown) [Cpd 7, 2-[7-(4-methyl-4-azaspiro[2.5]octan-7-yl)-7H-pyrrolo[2,3-c]pyridazin-3-yl]-5-(1H-1,2,3-triazol-1-yl)phenol] | > 7.00 | –
CC1(C)C[C@H](n2ccc3cc(-c4ccc(-n5ccnn5)cc4O)nnc32)[C@H](F)C(C)(C)N1 [Cpd 8] | > 7.00 | –
Cc1cc2cc(-c3ccc(-n4ccnn4)cc3O)nnc2n1C1CCNC2(CC2)C1 (stereo not shown) [Cpd 9, 2-[7-(4-azaspiro[2.5]octan-7-yl)-6-methyl-7H-pyrrolo[2,3-c]pyridazin-3-yl]-5-(1H-1,2,3-triazol-1-yl)phenol] | 6.30 to 7.00 | –
Cc1cc2cc(-c3ccc(-n4ccnn4)cc3O)nnc2n1[C@H]1CC(C)(C)NC(C)(C)[C@H]1F [Cpd 10, 2-{7-[(3S,4S)-3-fluoro-2,2,6,6-tetramethylpiperidin-4-yl]-6-methyl-7H-pyrrolo[2,3-c]pyridazin-3-yl}-5-(1H-1,2,3-triazol-1-yl)phenol] | > 7.00 | –
Oc1cc(-n2ccnn2)ccc1-c1cc2ccn([C@@H]3CCNC4(CC4)C3)c2nn1 [Cpd 11, 2-{7-[(7R)-4-azaspiro[2.5]octan-7-yl]-7H-pyrrolo[2,3-c]pyridazin-3-yl}-5-(1H-1,2,3-triazol-1-yl)phenol] | > 7.00 | –
Oc1cc(-n2ccnn2)ccc1-c1cc2ccn([C@H]3CCNC4(CC4)C3)c2nn1 [Cpd 13, 2-{7-[(7S)-4-azaspiro[2.5]octan-7-yl]-7H-pyrrolo[2,3-c]pyridazin-3-yl}-5-(1H-1,2,3-triazol-1-yl)phenol] | > 7.00 | –
Oc1cc(-n2ccnn2)cnc1-c1cc2ccn([C@H]3CCNC4(CC4)C3)c2nn1 [Cpd 14, 2-{7-[(7S)-4-azaspiro[2.5]octan-7-yl]-7H-pyrrolo[2,3-c]pyridazin-3-yl}-5-(1H-1,2,3-triazol-1-yl)pyridine-3-ol] | > 7.00 | –
Cc1cn(-c2ccc(-c3cc4ccn([C@H]5CC(C)(C)NC(C)(C)[C@H]5F)c4nn3)c(O)c2)nn1 [Cpd 15, 2-{7-[(3S,4S)-3-fluoro-2,2,6,6-tetramethylpiperidin-4-yl]-7H-pyrrolo[2,3-c]pyridazin-3-yl}-5-(4-methyl-1H-1,2,3-triazol-1-yl)phenol] | – | pIC50 [3]: > 7.00
Cc1cn(-c2ccc(-c3cc4ccn([C@H]5CCNC6(CC6)C5)c4nn3)c(O)c2)nn1 [Cpd 16, 2-{7-[(7S)-4-azaspiro[2.5]octan-7-yl]-7H-pyrrolo[2,3-c]pyridazin-3-yl}-5-(4-methyl-1H-1,2,3-triazol-1-yl)phenol] | – | pIC50 [3]: > 7.00
Cc1cnnn1-c1ccc(-c2cc3ccn([C@H]4CC(C)(C)NC(C)(C)[C@H]4F)c3nn2)c(O)c1 [Cpd 17, 2-{7-[(3S,4S)-3-fluoro-2,2,6,6-tetramethylpiperidin-4-yl]-7H-pyrrolo[2,3-c]pyridazin-3-yl}-5-(5-methyl-1H-1,2,3-triazol-1-yl)phenol] | – | pIC50 [3]: 6.30 to 7.00
Cc1cnnn1-c1ccc(-c2cc3ccn([C@H]4CCNC5(CC5)C4)c3nn2)c(O)c1 [Cpd 18, 2-{7-[(7S)-4-azaspiro[2.5]octan-7-yl]-7H-pyrrolo[2,3-c]pyridazin-3-yl}-5-(5-methyl-1H-1,2,3-triazol-1-yl)phenol] | 6.00 to 6.30 | –
CC1(C)C[C@H](n2ccc3cc(-c4ccc(-n5cc(Cl)nn5)cc4O)nnc32)[C@H](F)C(C)(C)N1 [Cpd 19, 5-(4-chloro-1H-1,2,3-triazol-1-yl)-2-{7-[(3S,4S)-3-fluoro-2,2,6,6-tetramethylpiperidin-4-yl]-7H-pyrrolo[2,3-c]pyridazin-3-yl}phenol] | – | pIC50 [3]: > 7.00
CC1(C)C[C@H](n2ccc3cc(-c4ccc(-n5ccnn5)cc4O)nnc32)[C@H](F)CN1 [Cpd 22, 2-{7-[(4S,5R)-5-fluoro-2,2-dimethylpiperidin-4-yl]-7H-pyrrolo[2,3-c]pyridazin-3-yl}-5-(1H-1,2,3-triazol-1-yl)phenol] | > 7.00 | –
Oc1cc(-n2ccnn2)ccc1-c1cc2ccn(C3CC4(CC4)NC4(CC4)C3)c2nn1 (stereo not shown) [Cpd 24, 2-[7-(4-azadispiro[2.1.2^5.3^3]decan-9-yl)-7H-pyrrolo[2,3-c]pyridazin-3-yl]-5-(1H-1,2,3-triazol-1-yl)phenol] | > 7.00 | –
CC1(C)CC(n2ccc3cc(-c4ccc(-c5cn[nH]c5)cc4O)nnc32)CC(C)(C)N1 [Cpd 26 in WO2020/005873, reference compound] | – | pIC50 [2]: 8.15
CC1(C)C[C@H](n2ccc3cc(-c4cc(F)c(-n5ccnn5)cc4O)nnc32)[C@H](F)C(C)(C)N1 [Cpd 26, 4-fluoro-2-{7-[(3S,4S)-3-fluoro-2,2,6,6-tetramethylpiperidin-4-yl]-7H-pyrrolo[2,3-c]pyridazin-3-yl}-5-(1H-1,2,3-triazol-1-yl)pheno] | > 7.00 | –
